Experimental data published in patent publication US20170275270A1, “BENZYL SUBSTITUTED INDAZOLES” (Bayer Pharma Aktiengesellschaft, priority 2014, published 2017).
Where two headings read alike, the source gives them in different places.

Legend:
Bub1 = Bub1 (Homo sapiens, UniProt O43683); experiment: Formation-Assay: phosphorylation status of histone 2A by inhibition of kinase activity of Bub1; assay type: cell-based; conditions: Biological Assay 4.1: H2A Formation IC50, co-treatment with Nocodazole 1 μg/ml, 16 h
Outline: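 Cells co-treated 16 h with Nocodazole (1 μg/ml) and compound (3 nM–10 μM), then fixed and immunostained for phospho-H2A, read by infrared imaging (800 nm) normalised to cell stain (700 nm). Nocodazole-only set as 100%, untreated cells as 0%.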

HeLa = experiment: Proliferation assay (HeLa cell line); conditions: Homo sapiens, 96 h, read-out: Biological Assay 2: Proliferation assay (HeLa cell line) median IC50;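 also: crystal violet staining of cell number, scaled between a plate stained before dosing (0%) and cells left untreated (100%), compounds tested at 0.001-10 µM, IC50 via 4-parameter fit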
[1] = test system: HeLa human cervical tumor cells; experiment: Proliferation assay (HeLa+Paclitaxel); conditions: read-out: Biological Assay 3: HeLa + Paclitaxel IC50, 3 nM paclitaxel, crystal violet;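 also: compounds at 0.001-10 µM added 4 h after paclitaxel, 92 h exposure, absorbance normalized to zero-point plate (0%) and untreated cells (100%), IC50 from 4-parameter fit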
[2] = target: T1, catalytic domain of human Bub1 (amino acids 704-1085) (Homo sapiens, UniProt O43683); experiment: Bub1 kinase assay (TR-FRET); assay type: biochemical
T1 construct: catalytic domain of human Bub1 (amino acids 704-1085); His6 (N); made in house; host or cells: Hi5 insect cells
Outline: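 Compounds from 2 mM DMSO stocks, serially diluted 1:3.4, incubated with enzyme at 22° C for 60 min. Stopped with EDTA, then 1 h with streptavidin-XL665, anti-phosphoserine antibody and Eu-labelled anti-mouse IgG. Phosphorylated biotin-peptide read by TR-FRET; IC50 by 4-parameter logistic fit.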

[3] = 10 μM ATP, read-out: Biological Assay 1: Bub1 kinase assay median IC50
[4] = Biological Assay 1: Bub1 kinase assay median IC50, 10 μM ATP

Chain of Bub1 (O43683 whole entry): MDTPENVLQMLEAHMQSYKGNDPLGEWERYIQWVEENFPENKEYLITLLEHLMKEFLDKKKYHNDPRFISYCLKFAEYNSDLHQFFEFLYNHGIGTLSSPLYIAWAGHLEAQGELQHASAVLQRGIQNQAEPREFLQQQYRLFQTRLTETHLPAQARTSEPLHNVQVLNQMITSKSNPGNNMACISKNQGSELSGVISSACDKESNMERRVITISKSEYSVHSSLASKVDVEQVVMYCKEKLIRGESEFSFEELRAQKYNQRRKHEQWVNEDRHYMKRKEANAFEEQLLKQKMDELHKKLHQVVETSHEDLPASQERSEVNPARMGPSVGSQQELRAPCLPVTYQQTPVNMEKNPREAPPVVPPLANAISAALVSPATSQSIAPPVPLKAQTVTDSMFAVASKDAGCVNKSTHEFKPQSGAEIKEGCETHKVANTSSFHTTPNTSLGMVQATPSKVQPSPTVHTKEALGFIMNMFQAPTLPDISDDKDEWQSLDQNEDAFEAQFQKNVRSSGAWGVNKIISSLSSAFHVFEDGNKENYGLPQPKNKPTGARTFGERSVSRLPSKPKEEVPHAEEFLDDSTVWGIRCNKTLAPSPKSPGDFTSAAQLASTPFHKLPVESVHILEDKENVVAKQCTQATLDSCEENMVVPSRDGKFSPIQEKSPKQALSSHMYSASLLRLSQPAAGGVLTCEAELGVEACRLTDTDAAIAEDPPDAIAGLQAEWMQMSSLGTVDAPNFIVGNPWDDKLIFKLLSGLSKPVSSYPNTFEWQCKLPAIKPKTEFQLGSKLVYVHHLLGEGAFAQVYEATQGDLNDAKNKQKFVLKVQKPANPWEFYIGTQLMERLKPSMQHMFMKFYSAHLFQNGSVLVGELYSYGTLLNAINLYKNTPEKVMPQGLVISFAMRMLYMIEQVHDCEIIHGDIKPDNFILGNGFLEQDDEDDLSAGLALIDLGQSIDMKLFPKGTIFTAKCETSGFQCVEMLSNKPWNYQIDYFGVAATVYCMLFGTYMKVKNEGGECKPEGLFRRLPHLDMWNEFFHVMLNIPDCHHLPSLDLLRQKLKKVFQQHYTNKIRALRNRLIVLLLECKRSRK
T1 sequence (O43683 704-1085): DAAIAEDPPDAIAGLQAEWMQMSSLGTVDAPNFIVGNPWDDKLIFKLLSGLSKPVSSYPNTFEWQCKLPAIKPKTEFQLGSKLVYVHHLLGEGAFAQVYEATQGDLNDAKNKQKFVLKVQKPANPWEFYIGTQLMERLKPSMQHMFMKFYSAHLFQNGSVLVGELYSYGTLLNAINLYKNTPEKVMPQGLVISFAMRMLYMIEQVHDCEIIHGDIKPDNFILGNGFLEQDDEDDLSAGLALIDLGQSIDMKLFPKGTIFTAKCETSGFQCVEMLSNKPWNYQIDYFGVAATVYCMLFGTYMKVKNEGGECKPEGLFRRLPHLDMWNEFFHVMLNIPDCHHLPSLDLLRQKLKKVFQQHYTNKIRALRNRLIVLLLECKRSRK

Compound	IC50 (Bub1) [nM]	IC50 (HeLa) [nM]	IC50 [1] [nM]	IC50 [2, 3] [nM]	IC50 [2, 4] [nM]
CCOc1cc(F)c(Cn2nc(-c3nc4c(c(Nc5ncncn5)n3)CCC4)c3ccccc32)c(F)c1 [Example 2-12-52, 2-[1-(4-ethoxy-2,6-difluorobenzyl)-1H-indazol-3-yl]-N-(1,3,5-triazin-2-yl)-6,7-dihydro-5H-cyclopenta[d]pyrimidin-4-amine]	25	1100	990	100	–
CCOc1cc(F)c(Cn2nc(-c3nc4c(c(Nc5cnnc(Cl)c5)n3)CCC4)c3ccccc32)c(F)c1 [Example 2-12-53, N-(6-chloropyridazin-4-yl)-2-[1-(4-ethoxy-2,6-difluorobenzyl)-1H-indazol-3-yl]-6,7-dihydro-5H-cyclopenta[d]pyrimidin-4-amine]	140	> 10000	510	660	–
CCOc1cc(F)c(Cn2nc(-c3nc4c(c(Nc5ccnc(C)n5)n3)CCC4)c3ccccc32)c(F)c1 [Example 2-12-54, 2-[1-(4-ethoxy-2,6-difluorobenzyl)-1H-indazol-3-yl]-N-(2-methylpyrimidin-4-yl)-6,7-dihydro-5H-cyclopenta[d]pyrimidin-4-amine]	14	3300	180	–	31
CCOc1cc(F)c(Cn2nc(-c3nc4c(c(Nc5cc(C)ncc5C)n3)CC(C)(C)C4)c3ccccc32)c(F)c1 [Example 2-12-59, N-(2,5-dimethylpyridin-4-yl)-2-[1-(4-ethoxy-2,6-difluorobenzyl)-1H-indazol-3-yl]-6,6-dimethyl-6,7-dihydro-5H-cyclopenta[d]pyrimidin-4-amine]	120	> 10000	62	22	–
CCOc1cc(F)c(Cn2nc(-c3nc4c(c(Nc5ccnc(C)n5)n3)CC(C)(C)C4)c3ccccc32)c(F)c1 [Example 2-12-60, 2-[1-(4-ethoxy-2,6-difluorobenzyl)-1H-indazol-3-yl]-6,6-dimethyl-N-(2-methylpyrimidin-4-yl)-6,7-dihydro-5H-cyclopenta[d]pyrimidin-4-amine]	3.9	> 10000	86	–	38
COCCOc1cc(F)c(Cn2nc(-c3nc4c(c(Nc5ccnc(C)n5)n3)CC(C)(C)C4)c3ccccc32)c(F)c1 [Example 2-12-61, 2-{1-[2,6-difluoro-4-(2-methoxyethoxy)benzyl]-1H-indazol-3-yl}-6,6-dimethyl-N-(2-methylpyrimidin-4-yl)-6,7-dihydro-5H-cyclopenta[d]pyrimidin-4-amine]	2400	> 10000	130	–	74
CCOc1cc(F)c(Cn2nc(-c3nc4c(c(Nc5ccnc(NC(C)=O)c5)n3)CC(C)(C)C4)c3ccccc32)c(F)c1 [Example 2-12-65, N-[4-({2-[1-(4-ethoxy-2,6-difluorobenzyl)-1H-indazol-3-yl]-6,6-dimethyl-6,7-dihydro-5H-cyclopenta[d]pyrimidin-4-yl}amino)pyridin-2-yl]acetamide]	3.3	> 10000	110	–	22
CCOc1cc(F)c(Cn2nc(-c3nc4c(c(Nc5ccnc(C)n5)n3)CC(C)(C)CC4)c3ccccc32)c(F)c1 [Example 2-12-66, 2-[1-(4-ethoxy-2,6-difluorobenzyl)-1H-indazol-3-yl]-6,6-dimethyl-N-(2-methylpyrimidin-4-yl)-5,6,7,8-tetrahydroquinazolin-4-amine]	22	> 10000	100	98	–
CCOc1cc(F)c(Cn2nc(-c3nc4c(c(Nc5ccncc5OC)n3)CC(C)(C)CC4)c3ccccc32)c(F)c1 [Example 2-12-67, 2-[1-(4-ethoxy-2,6-difluorobenzyl)-1H-indazol-3-yl]-N-(3-methoxypyridin-4-yl)-6,6-dimethyl-5,6,7,8-tetrahydroquinazolin-4-amine]	22	4400	150	66	–
CCOc1cc(F)c(Cn2nc(-c3nc4c(c(Nc5cc(C)ncc5C)n3)CC(C)(C)CC4)c3ccccc32)c(F)c1 [Example 2-12-68, N-(2,5-dimethylpyridin-4-yl)-2-[1-(4-ethoxy-2,6-difluorobenzyl)-1H-indazol-3-yl]-6,6-dimethyl-5,6,7,8-tetrahydroquinazolin-4-amine]	3.8	2700	78	35	–
CCOc1cc(F)c(Cn2nc(-c3nc(Nc4ccncc4OC)cc(C(F)(F)F)n3)c3ccccc32)c(F)c1 [Example 2-12-81, 2-[1-(4-ethoxy-2,6-difluorobenzyl)-1H-indazol-3-yl]-N-(3-methoxypyridin-4-yl)-6-(trifluoromethyl)pyr-imidin-4-amine]	13	1600	220	19	–
CCOc1cc(F)c(Cn2nc(-c3nc(Nc4ccnc(C)n4)cc(C(F)(F)F)n3)c3ccccc32)c(F)c1 [Example 2-12-83, 2-[1-(4-ethoxy-2,6-difluorobenzyl)-1H-indazol-3-yl]-N-(2-methylpyrimidin-4-yl)-6-(trifluoromethyl)pyr-imidin-4-amine]	31	> 10000	350	–	> 20000
CCOc1cc(F)c(Cn2nc(-c3ncc(CCCO)c(Nc4ccncc4)n3)c3ccccc32)c(F)c1 [Example 2-13-1, 3-{2-[1-(4-ethoxy-2,6-difluorobenzyl)-1H-indazol-3-yl]-4-(pyridin-4-ylamino)pyrimidin-5-yl}propan-1-ol]	8.2	3700	370	–	5.3
CCOc1cc(F)c(Cn2nc(-c3nc4c(c(Nc5ccncc5F)n3)CCC4)c3ccccc32)c(F)c1 [Example 2-14-1, 2-[1-(4-ethoxy-2,6-difluorobenzyl)-1H-indazol-3-yl]-N-(3-fluoropyridin-4-yl)-6,7-dihydro-5H-cyclopenta[d]pyrimidin-4-amine]	2.8	10000	680	9.6	–
CCOc1cc(F)c(Cn2nc(-c3nc4c(c(Nc5ccncc5C)n3)CCC4)c3ccccc32)c(F)c1 [Example 2-14-2, 2-[1-(4-ethoxy-2,6-difluorobenzyl)-1H-indazol-3-yl]-N-(3-methylpyridin-4-yl)-6,7-dihydro-5H-cyclopenta[d]pyrimidin-4-amine]	1.6	1100	120	8	–

Continued, values first:

IC50 (Bub1) [nM]	IC50 (HeLa) [nM]	IC50 [1] [nM]	IC50 [2, 3] [nM]	IC50 [2, 4] [nM]	Compound
13	940	120	2.9	–	CCOc1cc(F)c(Cn2nc(-c3nc4c(c(Nc5ccncc5OC)n3)CCC4)c3ccccc32)c(F)c1 [Example 2-14-4, 2-[1-(4-ethoxy-2,6-difluorobenzyl)-1H-indazol-3-yl]-N-(3-methoxypyridin-4-yl)-6,7-dihydro-5H-cyclopenta[d]pyrimidin-4-amine]
2.7	3600	540	16	–	CCOc1cc(F)c(Cn2nc(-c3nc4c(c(Nc5ccnnc5)n3)CCC4)c3ccccc32)c(F)c1 [Example 2-14-5, 2-[1-(4-ethoxy-2,6-difluorobenzyl)-1H-indazol-3-yl]-N-(pyridazin-4-yl)-6,7-dihydro-5H-cyclopenta[d]pyrimidin-4-amine]
2.7	3600	270	37	–	CCOc1cc(F)c(Cn2nc(-c3nc4c(c(Nc5ccncn5)n3)CCC4)c3ccccc32)c(F)c1 [Example 2-14-6, 2-[1-(4-ethoxy-2,6-difluorobenzyl)-1H-indazol-3-yl]-N-(pyrimidin-4-yl)-6,7-dihydro-5H-cyclopenta[d]pyrimidin-4-amine]
39	> 10000	45	–	47	CCOc1cc(F)c(Cn2nc(-c3nc4c(c(Nc5ccnc(C)c5)n3)CN(CC)CC4)c3ccccc32)c(F)c1 [Example 2-15-2, 2-[1-(4-ethoxy-2,6-difluorobenzyl)-1H-indazol-3-yl]-6-ethyl-N-(2-methylpyridin-4-yl)-5,6,7,8-tetrahydropyrido[4,3-d]pyrimidin-4-amine]
18	3000	200	–	18	CCOc1cc(F)c(Cn2nc(-c3ncc(CCNCC(F)(F)F)c(Nc4ccncc4)n3)c3ccccc32)c(F)c1 [Example 2-16-1, 2-[1-(4-ethoxy-2,6-difluorobenzyl)-1H-indazol-3-yl]-N-(pyridin-4-yl)-5-{2-[(2,2,2-trifluoroethyl)amino]ethyl}pyrimidin-4-amine]
12	1100	170	–	6.1	CCOc1cc(F)c(Cn2nc(-c3ncc(C4CCNCC4)c(Nc4ccncc4)n3)c3ccccc32)c(F)c1 [Example 2-17-1, 2-[1-(4-ethoxy-2,6-difluorobenzyl)-1H-indazol-3-yl]-5-(piperidin-4-yl)-N-(pyridin-4-yl)pyrimidin-4-amine]
4.8	3100	190	–	8.6	CCOc1cc(F)c(Cn2nc(-c3ncc(C4CCNCC4)c(Nc4ccnc(NC(C)=O)c4)n3)c3ccccc32)c(F)c1 [Example 2-17-2, N-[4-({2-[1-(4-ethoxy-2,6-difluorobenzyl)-1H-indazol-3-yl]-5-(piperidin-4-yl)pyrimidin-4-yl}amino)pyridin-2-yl]acetamide]
